For assay [1], the target named is full-length human PTPN2 (TC45) (1-387) protein (Homo sapiens (Human), UniProt P17706). Kind of assay: Enzymatic assay, full-length PTPN2 DiFMUP assay. The assay is classed as biochemical. Particulars: 0.5 nM PTPN2, 100 μM DiFMUP, 30 min at room temperature. An excerpt: Example A: Enzymatic Assay Used to Determine Potency of PTPN2 Inhibitors
Compounds were subsequently added using a Tecan D300e dispenser. […] A four-parameter curve fit was used to determine IC50 values from % inhibition data.

The test system of assay [2] is murine B16F10 melanoma cell line. The assay is described as follows: B16F10 IFNγ-induced cellular growth inhibition assay (xCELLigence RTCA). The assay is classed as cell-based. Conditions: Mus musculus, B16-F10, 48 h; read-out: B16 IFNγ Mediated Growth Inhibition Assay: AVG IC50. The procedure: Example B: B16F10 Cellular Growth Inhibition Assay
Compound activity was determined using an interferon gamma (IFNγ)-induced cellular growth inhibition assay with the murine B16F10 melanoma cell line on an Agilent xCELLigence Real-Time Cell Analysis platform (RTCA). RTCA E-Plate View 96 plates (Agilent, 300601010) were pre-equilibrated with 50 μL of assay media (DMEM+10% FBS, Gibco 10566-024, Gibco 10082-147) at 37° C., in a humidified incubator before taking an initial measurement of impedance (sweep). B16F10 cells cultured in assay media were dissociated with TrypLE Express (Gibco 12605-010) for five minutes at 37° C., diluted in 3 volumes of assay buffer, centrifuged for 5 minutes at 500×g at room temperature before diluting cells to 7,700 cells/mL in assay media, plating 130 μL/well (1,000 cells/well) in the inner 60 wells of the assay plate, and adding 150 μL of assay media to the outer wells of the plate. Cells were incubated at room temperature for 20 min to allow cells to settle before placing them in the xCELLigence reader and incubating overnight at 37° C., sweeping wells every 15 minutes. After 24 hours, well readings were paused, plates were removed from the incubator and compounds were added using a Tecan D300e dispenser. All wells were normalized to a final concentration of 0.5% DMSO. Following a 30 min incubation at 37° C., recombinant mouse IFNγ (R&D Systems™ 485 MI100) was diluted to 10 ng/ml in assay media and 20 μL was added to assay wells (1 ng/mL final concentration). Assay plates were placed in the xCELLigence reader and swept every 15 minutes. After 48 hours, well readings were normalized to the time point immediately preceding compound addition and the area under the growth curve (AUC) was calculated by the RTCA software and exported.

Chain of full-length human PTPN2 (TC45) (1-387) protein (P17706 other isoform, or with tags, fused parts or gaps): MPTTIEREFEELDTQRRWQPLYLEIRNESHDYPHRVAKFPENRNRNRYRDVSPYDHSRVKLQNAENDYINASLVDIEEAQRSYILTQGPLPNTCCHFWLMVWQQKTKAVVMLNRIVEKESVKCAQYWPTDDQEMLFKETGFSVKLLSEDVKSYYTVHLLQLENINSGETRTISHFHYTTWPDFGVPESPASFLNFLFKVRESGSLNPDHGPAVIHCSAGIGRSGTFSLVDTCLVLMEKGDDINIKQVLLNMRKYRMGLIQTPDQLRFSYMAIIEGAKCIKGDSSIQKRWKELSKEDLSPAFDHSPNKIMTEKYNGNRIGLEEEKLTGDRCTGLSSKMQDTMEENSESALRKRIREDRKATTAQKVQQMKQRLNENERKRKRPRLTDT

Broadly, the IC50 is the point on the concentration scale where inhibition reaches its midpoint. As for `COc1cc2c(c(F)c1N1CC(=O)NS1(=O)=O)CC(NCCC(C)C)CN2C` (stereo not drawn) [Example 1, 5-(5-fluoro-3-(isopentylamino)-7-methoxy-1-methyl-1,2,3,4-tetrahydroquinolin-6-yl)-1,2,5-thiadiazolidin-3-one 1,1-dioxide], the IC50 in assay [1] is greater than 30000 nM.

In the case of `CC(C)CCNC1CNc2cc(O)c(N3CC(=O)NS3(=O)=O)c(F)c2C1` (stereo not drawn) [Example 2, 5-(5-fluoro-7-hydroxy-3-(isopentylamino)-1,2,3,4-tetrahydroquinolin-6-yl)-1,2,5-thiadiazolidin-3-one 1,1-dioxide], the IC50 in assay [1] amounted to 13 nM; in assay [2], 1450 nM.

For the compound `O=C1CN(c2c(O)cc3c(c2F)CCCN3)S(=O)(=O)N1` [Example 3, 5-(5-fluoro-7-hydroxy-1,2,3,4-tetrahydroquinolin-6-yl)-1,2,5-thiadiazolidin-3-one 1,1-dioxide], the IC50 stood at 131 nM in assay [1] and 3330 nM in assay [2].

In the case of `CN1CCCc2c1cc(O)c(N1CC(=O)NS1(=O)=O)c2F` [Example 4, 5-(5-fluoro-7-hydroxy-1-methyl-1,2,3,4-tetrahydroquinolin-6-yl)-1,2,5-thiadiazolidin-3-one 1,1-dioxide], the IC50 was 875 nM in assay [1] and 12700 nM in assay [2].

Compound `CCN1CCCc2c1cc(O)c(N1CC(=O)NS1(=O)=O)c2F` [Example 5] had an IC50 in assay [1] of 878 nM.

As to `CC(C)CN1CCCc2c1cc(O)c(N1CC(=O)NS1(=O)=O)c2F` [Example 6], the midpoint of inhibition in assay [1], the IC50, lay at 959 nM.

For `O=C1CN(c2c(O)cc3c(c2F)CCCN3Cc2ccccc2)S(=O)(=O)N1` [Example 7], the IC50 in assay [1] came to 532 nM.

Turning to `CC(C)CCN1CCCc2c1cc(O)c(N1CC(=O)NS1(=O)=O)c2F` [Example 8], the IC50 in assay [1] came to 957 nM.

In assay [1], `O=C1CN(c2c(O)cc3c(c2F)CCCN3CCc2ccccc2)S(=O)(=O)N1` [Example 9] came in with an IC50 of 1620 nM.

Source of the values: patent US20250136564A1, “PROTEIN TYROSINE PHOSPHATASE INHIBITORS AND USES THEREOF” (Nerio Therapeutics, Inc., priority 2022, published 2025).
